Results on one compound are retold here after patent publication US20080200461A1, “MODULATORS OF ACETYL-COENZYME A CARBOXYLASE AND METHODS OF USE THEREOF” (Cropsolution, Inc., priority 2007, published 2008).

The experiment deals with Ustilago maydis K53R ACC (Mycosarcoma maydis, UniProt A0A0D1DYD5, K53R). Description: biochemical. The format is biochemical.

Consider `CC[N+](CC)(CCCCN(Cc1cc(C)cc(C)c1)Cc1cc(C)cc(C)c1)Cc1cc(C)cc(C)c1.[Br-]` [Compound 28, Diethyl(3,5-dimethylbenzyl)[bis-(3,5-dimethylbenzyl)aminobutyl]ammonium formate], for which the IC50 is 52 µM.
